Data published in ChEMBL document CHEMBL3885881, “DrugMatrix”.

Species on record: Rattus norvegicus
Experiment: DrugMatrix - Regimen: Daily Repeat
Format: toxicity, organism-based, Sprague-Dawley
Set-up: regimen Daily Repeat, gender Male, age 6-8 weeks
Settings: in vivo, po, route oral GAVAGE, vehicle .5 % CMC; for ABSOLUTE BASOPHIL / ABSOLUTE EOSINOPHIL / ABSOLUTE LYMPHOCYTE / ABSOLUTE MONOCYTE / ABSOLUTE SEGMENTED NEUTROPHIL / BASOPHIL / EOSINOPHIL / ERYTHROCYTE COUNT / HEMATOCRIT / HEMOGLOBIN / LEUKOCYTE COUNT / LYMPHOCYTE / MEAN CORPUSCULAR HEMOGLOBIN / MEAN CORPUSCULAR HEMOGLOBIN CONCENTRATION / MEAN CORPUSCULAR VOLUME / MONOCYTE / NEUTROPHIL / NUCLEATED RED BLOOD CELLS / PLATELET COUNT: tissue Blood; for ALANINE AMINOTRANSFERASE / ALBUMIN / ALKALINE PHOSPHATASE / ASPARTATE AMINOTRANSFERASE / BLOOD UREA NITROGEN / CARBON DIOXIDE / CHLORIDE / CHOLESTEROL / CREATINE PHOSPHOKINASE / CREATININE / GLUCOSE / LACTATE DEHYDROGENASE / LIPASE / PHOSPHORUS / POTASSIUM / SODIUM / TOTAL BILIRUBIN / TOTAL PROTEIN / URIC ACID: tissue Plasma
[1] = 0.1 mg/kg, 120 h, dose level Low, time 5 day
[2] = […], 72 h, dose 1.1 mg/Kg, dose level High, time 3 day
[3] = […], 120 h, dose 1.1 mg/Kg, dose level High, time 5 day

CCCN1C[C@H](CSC)C[C@@H]2c3cccc4[nH]cc(c34)C[C@H]21 [PERGOLIDE]
ABSOLUTE BASOPHIL [1]: 0 CELLS/uL | ABSOLUTE EOSINOPHIL [1]: 175 CELLS/uL | ABSOLUTE LYMPHOCYTE [1]: 12836.67 CELLS/uL | ABSOLUTE MONOCYTE [1]: 191.67 CELLS/uL | ABSOLUTE SEGMENTED NEUTROPHIL [1]: 1130 CELLS/uL | BASOPHIL [1]: 0% | EOSINOPHIL [1]: 1% | ERYTHROCYTE COUNT [1]: 6.04 x10E6/uL | HEMATOCRIT [1]: 38.1% | HEMOGLOBIN [1]: 14.47 G/DL | LEUKOCYTE COUNT [1]: 14.33 x10E3/uL | LYMPHOCYTE [1]: 89.67% | MEAN CORPUSCULAR HEMOGLOBIN [1]: 24.1 pg | MEAN CORPUSCULAR HEMOGLOBIN CONCENTRATION [1]: 38.07 G/DL | MEAN CORPUSCULAR VOLUME [1]: 63.27 fL | MONOCYTE [1]: 1.33% | NEUTROPHIL [1]: 8% | NUCLEATED RED BLOOD CELLS [1]: 0 /100WBC | PLATELET COUNT [1]: 1209 x10E3/uL | ALANINE AMINOTRANSFERASE [1]: 50.33 u/L | ALBUMIN [1]: 4.13 G/DL | ALKALINE PHOSPHATASE [1]: 348 u/L | ASPARTATE AMINOTRANSFERASE [1]: 111.67 u/L | BLOOD UREA NITROGEN [1]: 19.33 mg/dL | CARBON DIOXIDE [1]: 24 mmol/L | CHLORIDE [1]: 107 MEQ/L | CHOLESTEROL [1]: 76.67 mg/dL | CREATINE PHOSPHOKINASE [1]: 1319 u/L | CREATININE [1]: 0.21 mg/dL | GLUCOSE [1]: 156 mg/dL | LACTATE DEHYDROGENASE [1]: 398.67 u/L | LIPASE [1]: 10 u/L | PHOSPHORUS [1]: 13.17 mg/dL | POTASSIUM [1]: 6.18 MEQ/L | SODIUM [1]: 145.93 MEQ/L | TOTAL BILIRUBIN [1]: 0.2 mg/dL | TOTAL PROTEIN [1]: 6.23 G/DL | URIC ACID [1]: 2.13 mg/dL | ABSOLUTE BASOPHIL [2]: 0 CELLS/uL | ABSOLUTE EOSINOPHIL [2]: 0 CELLS/uL | ABSOLUTE LYMPHOCYTE [2]: 11487 CELLS/uL | ABSOLUTE MONOCYTE [2]: 388 CELLS/uL | ABSOLUTE SEGMENTED NEUTROPHIL [2]: 1058.33 CELLS/uL | BASOPHIL [2]: 0% | EOSINOPHIL [2]: 0% | ERYTHROCYTE COUNT [2]: 5.69 x10E6/uL | HEMATOCRIT [2]: 36.2% | HEMOGLOBIN [2]: 13.43 G/DL | LEUKOCYTE COUNT [2]: 12.93 x10E3/uL | LYMPHOCYTE [2]: 88.67% | MEAN CORPUSCULAR HEMOGLOBIN [2]: 23.63 pg | MEAN CORPUSCULAR HEMOGLOBIN CONCENTRATION [2]: 37.13 G/DL | MEAN CORPUSCULAR VOLUME [2]: 63.6 fL | MONOCYTE [2]: 3% | NEUTROPHIL [2]: 8.33% | NUCLEATED RED BLOOD CELLS [2]: 0 /100WBC | PLATELET COUNT [2]: 1255.67 x10E3/uL | ALANINE AMINOTRANSFERASE [2]: 71 u/L | ALBUMIN [2]: 4.2 G/DL | ALKALINE PHOSPHATASE [2]: 385.33 u/L | ASPARTATE AMINOTRANSFERASE [2]: 116 u/L | BLOOD UREA NITROGEN [2]: 16 mg/dL | CARBON DIOXIDE [2]: 24.67 mmol/L | CHLORIDE [2]: 104.67 MEQ/L | CHOLESTEROL [2]: 68 mg/dL | CREATINE PHOSPHOKINASE [2]: 406 u/L | CREATININE [2]: 0.19 mg/dL | GLUCOSE [2]: 157 mg/dL | LACTATE DEHYDROGENASE [2]: 402.67 u/L | LIPASE [2]: 10 u/L | PHOSPHORUS [2]: 12.03 mg/dL | POTASSIUM [2]: 6.59 MEQ/L | SODIUM [2]: 145.53 MEQ/L | TOTAL BILIRUBIN [2]: 0.2 mg/dL | TOTAL PROTEIN [2]: 5.67 G/DL | URIC ACID [2]: 1.73 mg/dL | ABSOLUTE BASOPHIL [3]: 0 CELLS/uL | ABSOLUTE EOSINOPHIL [3]: 64.33 CELLS/uL | ABSOLUTE LYMPHOCYTE [3]: 14339 CELLS/uL | ABSOLUTE MONOCYTE [3]: 275 CELLS/uL | ABSOLUTE SEGMENTED NEUTROPHIL [3]: 888.33 CELLS/uL | BASOPHIL [3]: 0% | EOSINOPHIL [3]: 0.33% | ERYTHROCYTE COUNT [3]: 6.31 x10E6/uL | HEMATOCRIT [3]: 40.47% | HEMOGLOBIN [3]: 15.03 G/DL | LEUKOCYTE COUNT [3]: 15.57 x10E3/uL | LYMPHOCYTE [3]: 92.33% | MEAN CORPUSCULAR HEMOGLOBIN [3]: 23.77 pg | MEAN CORPUSCULAR HEMOGLOBIN CONCENTRATION [3]: 37.23 G/DL | MEAN CORPUSCULAR VOLUME [3]: 63.93 fL | MONOCYTE [3]: 1.67% | NEUTROPHIL [3]: 5.67% | NUCLEATED RED BLOOD CELLS [3]: 0 /100WBC | PLATELET COUNT [3]: 990.67 x10E3/uL | ALANINE AMINOTRANSFERASE [3]: 44.33 u/L | ALBUMIN [3]: 4.53 G/DL | ALKALINE PHOSPHATASE [3]: 385.67 u/L | ASPARTATE AMINOTRANSFERASE [3]: 82 u/L | BLOOD UREA NITROGEN [3]: 17.33 mg/dL | CARBON DIOXIDE [3]: 27.33 mmol/L | CHLORIDE [3]: 108.33 MEQ/L | CHOLESTEROL [3]: 76.67 mg/dL | CREATINE PHOSPHOKINASE [3]: 501.67 u/L | CREATININE [3]: 0.22 mg/dL | GLUCOSE [3]: 154 mg/dL | LACTATE DEHYDROGENASE [3]: 206.33 u/L | LIPASE [3]: 9.33 u/L | PHOSPHORUS [3]: 11.87 mg/dL | POTASSIUM [3]: 6.29 MEQ/L | SODIUM [3]: 147.9 MEQ/L | TOTAL BILIRUBIN [3]: 0.23 mg/dL | TOTAL PROTEIN [3]: 6.37 G/DL | URIC ACID [3]: 1.63 mg/dL
